Assay results published in patent US11932624B2, “MDM2 degraders and uses thereof” (Kymera Therapeutics, Inc., priority 2020, dated 2024).

Test system: RS411 cells
Test: Cell Viability CTG Assay (CellTiter Glo) in RS411 cells
Assay type: cell-based
Details: Homo sapiens, RS4-11, 24 h, duration 1 day
Method in brief: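 RS411 cells at 1000 cells/well were exposed to compound (top final 10 μM, 3-fold, 11 doses; 0.2% DMSO) at 37 °C, 5% CO2 for 1-4 days. Viability was read by CellTiter Glo luminescence after 10 min at RT. IC50 is reported as letter-code bins.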

Row | Compound | IC50 [nM]
1 | Cn1c(=O)n(C2CCC(=O)NC2=O)c2ccc(CCCCCNC(=O)[C@@H]3CC[C@@H](NC(=O)[C@@H]4NC5(CCC(C)(C)CC5)[C@@]5(C(=O)Nc6cc(Cl)ccc65)[C@H]4c4cccc(Cl)c4F)CO3)cc21 (some centres unmarked) [I-98] | < 50
2 | CN(CCCCCc1ccc2c(c1)n(C)c(=O)n2C1CCC(=O)NC1=O)Cc1ccc(NC(=O)[C@@H]2NC3(CCCCC3)[C@@]3(C(=O)Nc4cc(Cl)ccc43)[C@H]2c2cccc(Cl)c2F)cc1 (some centres unmarked) [I-99] | < 50
3 | Cn1c(=O)n(C2CCC(=O)NC2=O)c2ccc(C#CC3CN(C(=O)[C@H]4C[C@H](NC(=O)[C@@H]5NC6(CCC(C)(C)CC6)[C@@]6(C(=O)Nc7cc(Cl)ccc76)[C@H]5c5cccc(Cl)c5F)C4)C3)cc21 (some centres unmarked) [I-100] | < 50
4 | CN1[C@@H](C(=O)Nc2ccc(C(=O)NCCCCCc3ccc4c(c3)n(C)c(=O)n4C3CCC(=O)NC3=O)cc2)[C@H](c2cccc(Cl)c2F)[C@]2(C(=O)Nc3cc(Cl)ccc32)C12CCCCC2 (some centres unmarked) [I-101] | < 50
5 | Cn1c(=O)n(C2CCC(=O)NC2=O)c2ccc(CCC3CCN(Cc4ccc(NC(=O)[C@@H]5NC6(CCCCC6)[C@@]6(C(=O)Nc7cc(Cl)ccc76)[C@H]5c5cccc(Cl)c5F)cc4)CC3)cc21 (some centres unmarked) [I-102] | < 50
6 | Cn1c(=O)n(C2CCC(=O)NC2=O)c2cccc(C3CCN(C[C@H]4CC[C@H](NC(=O)[C@@H]5NC6(CCC(C)(C)CC6)[C@@]6(C(=O)Nc7cc(Cl)ccc76)[C@H]5c5cccc(Cl)c5F)CC4)CC3)c21 (some centres unmarked) [I-103] | < 50
7 | Cn1c(=O)n(C2CCC(=O)NC2=O)c2ccc(CCCCCNC(=O)[C@H]3CC[C@H](N(C)C(=O)[C@@H]4NC5(CCCCC5)[C@@]5(C(=O)Nc6cc(Cl)ccc65)[C@H]4c4cccc(Cl)c4F)CC3)cc21 (some centres unmarked) [I-105] | > 1000
8 | O=C1CCN(c2cnc3cc(C#CCOC4CCN(C(=O)c5ccc(NC(=O)[C@@H]6NC7(CCCCC7)[C@@]7(C(=O)Nc8cc(Cl)ccc87)[C@H]6c6cccc(Cl)c6F)cc5)CC4)ccn23)C(=O)N1 [I-106] | < 50
9 | Cn1c(=O)n(C2CCC(=O)NC2=O)c2cccc(C3CCN(C[C@H]4CC[C@H](NC(=O)[C@@H]5NC6(CCCCC6)[C@@]6(C(=O)Nc7cc(Cl)ccc76)[C@H]5c5cccc(Cl)c5F)CC4)CC3)c21 (some centres unmarked) [I-109] | < 50
10 | Cn1c(=O)n(C2CCC(=O)NC2=O)c2ccc(C#CCN3CCN(Cc4ccc(NC(=O)[C@@H]5NC6(CCCCC6)[C@@]6(C(=O)Nc7cc(Cl)ccc76)[C@H]5c5cccc(Cl)c5F)cc4)CC3)cc21 (some centres unmarked) [I-110] | < 50
11 | Cn1c(=O)n(C2CCC(=O)NC2=O)c2cccc(CN3CCC(OC4CCN(C[C@H]5CC[C@H](NC(=O)[C@@H]6NC7(CCC(C)(C)CC7)[C@@]7(C(=O)Nc8cc(Cl)ccc87)[C@H]6c6cccc(Cl)c6F)CC5)CC4)CC3)c21 (some centres unmarked) [I-111] | < 50
12 | Cn1c(=O)n(C2CCC(=O)NC2=O)c2cccc(CCC3CC4(CCN(C[C@H]5CC[C@H](NC(=O)[C@@H]6NC7(CCCCC7)[C@@]7(C(=O)Nc8cc(Cl)ccc87)[C@H]6c6cccc(Cl)c6F)CC5)CC4)C3)c21 (some centres unmarked) [I-112] | < 50
13 | Cn1c(=O)n(C2CCC(=O)NC2=O)c2cccc(CN3CCC(OC4CCN(C[C@H]5CC[C@H](NC(=O)[C@@H]6NC7(CCCCC7)[C@@]7(C(=O)Nc8cc(Cl)ccc87)[C@H]6c6cccc(Cl)c6F)CC5)CC4)CC3)c21 (some centres unmarked) [I-113] | < 50
14 | Cn1c(=O)n(C2CCC(=O)NC2=O)c2ccc(CCCN3CCN(C[C@H]4CC[C@H](NC(=O)[C@@H]5NC6(CCCCC6)[C@@]6(C(=O)Nc7cc(Cl)ccc76)[C@H]5c5cccc(Cl)c5F)CC4)CC3)cc21 (some centres unmarked) [I-114] | < 50
15 | Cn1c(=O)n(C2CCC(=O)NC2=O)c2cccc(C3CCN(Cc4ccc(NC(=O)[C@@H]5NC6(CCCCC6)[C@@]6(C(=O)Nc7cc(Cl)ccc76)[C@H]5c5cccc(Cl)c5F)cc4)CC3)c21 (some centres unmarked) [I-115] | < 50
16 | Cn1c(=O)n(C2CCC(=O)NC2=O)c2cccc(C#CC3CCN(Cc4ccc(CNC(=O)[C@@H]5NC6(CCCCC6)[C@@]6(C(=O)Nc7cc(Cl)ccc76)[C@H]5c5cccc(Cl)c5F)cc4)CC3)c21 (some centres unmarked) [I-116] | > 1000
17 | Cn1c(=O)n(C2CCC(=O)NC2=O)c2ccc(CN3CCC(OC4CCN(C[C@H]5CC[C@H](NC(=O)[C@@H]6NC7(CCCCC7)[C@@]7(C(=O)Nc8cc(Cl)ccc87)[C@H]6c6cccc(Cl)c6F)CC5)CC4)CC3)cc21 (some centres unmarked) [I-117] | < 50
18 | Cn1c(=O)n(C2CCC(=O)NC2=O)c2cccc(/C=C/C3CCN(C[C@H]4CC[C@H](CNC(=O)[C@@H]5NC6(CCCCC6)[C@@]6(C(=O)Nc7cc(Cl)ccc76)[C@H]5c5cccc(Cl)c5F)CC4)CC3)c21 (some centres unmarked) [I-118] | 50 to 100

Row | Compound | IC50 [nM]
19 | O=C1CCN(c2cnc3cc(C#CC4CCN(C[C@H]5CC[C@H](NC(=O)[C@@H]6NC7(CCCCC7)[C@@]7(C(=O)Nc8cc(Cl)ccc87)[C@H]6c6cccc(Cl)c6F)CC5)CC4)ccn23)C(=O)N1 [I-119] | < 50
20 | Cn1c(=O)n(C2CCC(=O)NC2=O)c2ccc(C#CCCCNC(=O)[C@H]3CC[C@H](N(C)C(=O)[C@@H]4NC5(CCCCC5)[C@@]5(C(=O)Nc6cc(Cl)ccc65)[C@H]4c4cccc(Cl)c4F)CC3)cc21 (some centres unmarked) [I-120] | > 1000
21 | Cn1c(=O)n(C2CCC(=O)NC2=O)c2ccc(CCCN3CCN(Cc4ccc(NC(=O)[C@@H]5NC6(CCCCC6)[C@@]6(C(=O)Nc7cc(Cl)ccc76)[C@H]5c5cccc(Cl)c5F)cc4)CC3)cc21 (some centres unmarked) [I-121] | < 50
22 | Cn1c(=O)n(C2CCC(=O)NC2=O)c2ccc(C#CC3CN(C[C@H]4C[C@H](NC(=O)[C@@H]5NC6(CCC(C)(C)CC6)[C@@]6(C(=O)Nc7cc(Cl)ccc76)[C@H]5c5cccc(Cl)c5F)C4)C3)cc21 (some centres unmarked) [I-122] | < 50
23 | CN1[C@@H](C(=O)N[C@H]2CC[C@H](CN3CCC(C#Cc4ccc5c(c4)n(C)c(=O)n5C4CCC(=O)NC4=O)CC3)CC2)[C@H](c2cccc(Cl)c2F)[C@]2(C(=O)Nc3cc(Cl)ccc32)C12CCC(C)(C)CC2 (some centres unmarked) [I-123] | < 50
24 | CN1[C@@H](C(=O)N[C@H]2C[C@@](C)(O)C2)[C@H](c2cccc(Cl)c2F)[C@]2(C(=O)N(CCCCCCCC#Cc3ccc4c(c3)n(C)c(=O)n4C3CCC(=O)NC3=O)c3cc(Cl)ccc32)C12CCCCC2 (some centres unmarked) [I-124] | > 1000
25 | Cn1c(=O)n(C2CCC(=O)NC2=O)c2ccc(CCCCCNC[C@H]3CC[C@H](NC(=O)[C@@H]4NC5(CCCCC5)[C@@]5(C(=O)Nc6cc(Cl)ccc65)[C@H]4c4cccc(Cl)c4F)CC3)cc21 (some centres unmarked) [I-125] | < 50
26 | Cn1c(=O)n(C2CCC(=O)NC2=O)c2ccc(CCCCCNCc3ccc(NC(=O)[C@@H]4NC5(CCCCC5)[C@@]5(C(=O)Nc6cc(Cl)ccc65)[C@H]4c4cccc(Cl)c4F)cc3)cc21 (some centres unmarked) [I-126] | < 50
27 | C#CCCCCCCCC1N(c2ccc(C(=O)NC)cc2OC)C(=O)[C@H]2[C@H](c3cccc(Cl)c3F)[C@@](C#N)(c3ccc(Cl)cc3F)[C@H](CC(C)(C)C)N12 (stereo partly drawn) [I-127, 4-[(5S,6R,7S,7aR)-7-(3-chloro-2-fluoro-phenyl)-6-(4-chloro-2-fluoro-phenyl)-6-cyano-5-(2,2-dimethylpropyl)-3-non-8-ynyl-1-oxo-3,5,7,7a-tetrahydropyrrolo[1,2-c]imidazol-2-yl]-3-methoxy-N-methyl-benzamide] | > 1000
28 | C#CCCCCCCCN1C(=O)[C@@]2(c3ccc(Cl)cc31)[C@@H](c1cccc(Cl)c1F)[C@H](C(=O)N[C@H]1C[C@@](C)(O)C1)N(C)C21CCCCC1 [I-128, (3′R,4'S,5′R)-6″-chloro-4′-(3-chloro-2-fluorophenyl)-N-((1s,3S)-3-hydroxy-3-methylcyclobutyl)-1′-methyl-1″-(non-8-yn-1-yl)-2″-oxodispiro[cyclohexane-1,2′-pyrrolidine-3′,3″-indoline]-5′-carboxamide] | > 1000
29 | C#CCCCCCCCN1C(=O)[C@@]2(c3ccc(Cl)cc31)[C@@H](c1cccc(Cl)c1F)[C@H](C(=O)O)N(C)C21CCCCC1 [I-129, (3′R,4'S,5′R)-6″-chloro-4′-(3-chloro-2-fluorophenyl)-1′-methyl-1″-(non-8-yn-1-yl)-2″-oxodispiro[cyclohexane-1,2′-pyrrolidine-3′,3″-indoline]-5′-carboxylic acid] | > 1000
30 | CN1[C@@H](C(=O)NC23CCC(C(=O)N4CCC(C#Cc5ccc6c(c5)n(C)c(=O)n6C5CCC(=O)NC5=O)CC4)(CC2)CC3)[C@H](c2cccc(Cl)c2F)[C@]2(C(=O)Nc3cc(Cl)ccc32)C12CCCCC2 (stereo partly drawn) [I-130, (3′R,4'S,5′R)-6″-chloro-4′-(3-chloro-2-fluorophenyl)-N-(4-(4-((1-(2,6-dioxopiperidin-3-yl)-3-methyl-2-oxo-2,3-dihydro-1H-benzo[d]imidazol-5-yl)ethynyl)piperidine-1-carbonyl)bicyclo[2.2.2]octan-1-yl)-1′-methyl-2″-oxodispiro[cyclohexane-1,2′-pyrrolidine-3′,3″-indoline]-5′-carboxamide] | < 50
31 | CCN1[C@@H](C(=O)NC23CCC(CN(C)CCCCCc4ccc5c(c4)n(C)c(=O)n5C4CCC(=O)NC4=O)(CC2)CC3)[C@H](c2cccc(Cl)c2F)[C@]2(C(=O)Nc3cc(Cl)ccc32)C12CCCCC2 (stereo partly drawn) [I-131, (3′R,4'S,5′R)-6″-chloro-4′-(3-chloro-2-fluorophenyl)-N-(4-(((5-(1-(2,6-dioxopiperidin-3-yl)-3-methyl-2-oxo-2,3-dihydro-1H-benzo[d]imidazol-5-yl)pentyl)(methyl)amino)methyl)bicyclo[2.2.2]octan-1-yl)-1′-ethyl-2″-oxodispiro[cyclohexane-1,2′-pyrrolidine-3′,3″-indoline]-5′-carboxamide] | 50 to 100
32 | O=C1CCC(N2Cc3c(C#CC4CCN(C(=O)[C@H]5CC[C@H](NC(=O)[C@@H]6NC7(CCCCC7)[C@@]7(C(=O)Nc8cc(Cl)ccc87)[C@H]6c6cccc(Cl)c6F)CC5)CC4)cccc3C2=O)C(=O)N1 (some centres unmarked) [I-134] | < 50
33 | CC(C)(C)C[C@@H]1N[C@@H](C(=O)N[C@H]2CC[C@H](CN3CCC(C#Cc4ccn5c(N6CCC(=O)NC6=O)cnc5c4)CC3)CC2)[C@H](c2cccc(Cl)c2F)[C@@]1(C#N)c1ccc(Cl)cc1F [I-135] | > 1000
34 | Cn1c(=O)n(C2CCC(=O)NC2=O)c2ccc(C#CCCN3CCN(C(=O)[C@H]4CC[C@H](NC(=O)[C@@H]5NC6(CCCCC6)[C@@]6(C(=O)Nc7cc(Cl)ccc76)[C@H]5c5cccc(Cl)c5F)CC4)CC3)cc21 (some centres unmarked) [I-136] | < 50
35 | Cn1c(=O)n(C2CCC(=O)NC2=O)c2cccc(C3CCN(C(=O)[C@H]4CC[C@H](NC(=O)[C@@H]5NC6(CCC(C)(C)CC6)[C@@]6(C(=O)Nc7cc(Cl)ccc76)[C@H]5c5cccc(Cl)c5F)CC4)CC3)c21 (some centres unmarked) [I-137] | < 50
